Experimental data published in EP2928896B1, “SOLID FORM OF DIHYDRO-PYRIDO-OXAZINE DERIVATIVE” (NOVARTIS AG, priority 2012, dated 2014).

Columns and labels:
[1] = biological target: PI3K alpha (Homo sapiens, UniProt P42336); test: Enzymatic PI3K alpha isoform inhibition (lipid kinase activity, Kinase-Glo luminescence / ATP depletion); type: biochemical
From the text: The reaction is started by the addition of PI3 kinase, e.g. PI3 kinase δ.
The reaction is started by the addition of ATP.

[2] = biological target: T1, PI3K delta (Homo sapiens, UniProt O00329); test: Enzymatic PI3K delta isoform inhibition (lipid kinase activity, Kinase-Glo luminescence / ATP depletion); type: biochemical
T1 construct: for the full-length p110-d subunit are generated and fused by overlapping PCR; p85 iSH2 (inter SH2 domain) fusion partner (N); His tag (C); made in house; host or cells: baculovirus; Tn5 (Trichoplusia ni) or TiniPro insect cells
T1 sequence (O00329 with tags, fused parts or gaps limits assumed): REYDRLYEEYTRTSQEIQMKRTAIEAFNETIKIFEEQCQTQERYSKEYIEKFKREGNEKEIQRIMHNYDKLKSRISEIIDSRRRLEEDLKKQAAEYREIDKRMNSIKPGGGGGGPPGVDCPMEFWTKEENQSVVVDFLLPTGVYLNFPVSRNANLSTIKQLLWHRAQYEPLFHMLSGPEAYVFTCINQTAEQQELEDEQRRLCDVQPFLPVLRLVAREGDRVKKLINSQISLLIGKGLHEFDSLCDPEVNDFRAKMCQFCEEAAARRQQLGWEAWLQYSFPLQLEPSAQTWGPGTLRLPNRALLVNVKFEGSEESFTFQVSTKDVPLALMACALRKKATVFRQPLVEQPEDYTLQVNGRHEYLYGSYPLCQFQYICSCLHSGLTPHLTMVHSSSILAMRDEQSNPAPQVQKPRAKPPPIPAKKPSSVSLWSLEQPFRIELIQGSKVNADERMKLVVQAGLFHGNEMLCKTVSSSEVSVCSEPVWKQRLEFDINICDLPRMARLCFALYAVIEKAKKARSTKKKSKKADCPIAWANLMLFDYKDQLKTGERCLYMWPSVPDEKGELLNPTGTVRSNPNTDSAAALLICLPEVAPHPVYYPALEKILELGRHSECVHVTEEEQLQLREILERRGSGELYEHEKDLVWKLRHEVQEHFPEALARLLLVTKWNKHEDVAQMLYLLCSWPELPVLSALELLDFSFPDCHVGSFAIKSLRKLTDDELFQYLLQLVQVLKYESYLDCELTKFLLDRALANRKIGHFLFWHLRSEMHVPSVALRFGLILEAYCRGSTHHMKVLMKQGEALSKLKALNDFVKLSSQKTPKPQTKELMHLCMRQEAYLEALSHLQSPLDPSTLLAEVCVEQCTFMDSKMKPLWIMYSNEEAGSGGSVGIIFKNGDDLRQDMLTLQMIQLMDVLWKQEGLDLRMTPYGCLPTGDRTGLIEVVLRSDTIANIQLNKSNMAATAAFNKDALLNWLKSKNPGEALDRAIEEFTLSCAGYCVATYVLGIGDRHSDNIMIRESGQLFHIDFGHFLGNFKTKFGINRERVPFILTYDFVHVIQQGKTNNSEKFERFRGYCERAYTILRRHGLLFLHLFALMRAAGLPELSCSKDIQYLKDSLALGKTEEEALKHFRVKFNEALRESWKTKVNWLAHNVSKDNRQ

[3] = biological target: T2, PI3Kδ (Homo sapiens, UniProt O00329); test: PI3K-mediated Akt 1/2 (S473) phosphorylation in Rat-1 cells overexpressing myristoylated PI3K delta (AlphaScreen SureFire); type: cell-based
T2 construct: expressed in transfected cells
T2 sequence (O00329 1-1044): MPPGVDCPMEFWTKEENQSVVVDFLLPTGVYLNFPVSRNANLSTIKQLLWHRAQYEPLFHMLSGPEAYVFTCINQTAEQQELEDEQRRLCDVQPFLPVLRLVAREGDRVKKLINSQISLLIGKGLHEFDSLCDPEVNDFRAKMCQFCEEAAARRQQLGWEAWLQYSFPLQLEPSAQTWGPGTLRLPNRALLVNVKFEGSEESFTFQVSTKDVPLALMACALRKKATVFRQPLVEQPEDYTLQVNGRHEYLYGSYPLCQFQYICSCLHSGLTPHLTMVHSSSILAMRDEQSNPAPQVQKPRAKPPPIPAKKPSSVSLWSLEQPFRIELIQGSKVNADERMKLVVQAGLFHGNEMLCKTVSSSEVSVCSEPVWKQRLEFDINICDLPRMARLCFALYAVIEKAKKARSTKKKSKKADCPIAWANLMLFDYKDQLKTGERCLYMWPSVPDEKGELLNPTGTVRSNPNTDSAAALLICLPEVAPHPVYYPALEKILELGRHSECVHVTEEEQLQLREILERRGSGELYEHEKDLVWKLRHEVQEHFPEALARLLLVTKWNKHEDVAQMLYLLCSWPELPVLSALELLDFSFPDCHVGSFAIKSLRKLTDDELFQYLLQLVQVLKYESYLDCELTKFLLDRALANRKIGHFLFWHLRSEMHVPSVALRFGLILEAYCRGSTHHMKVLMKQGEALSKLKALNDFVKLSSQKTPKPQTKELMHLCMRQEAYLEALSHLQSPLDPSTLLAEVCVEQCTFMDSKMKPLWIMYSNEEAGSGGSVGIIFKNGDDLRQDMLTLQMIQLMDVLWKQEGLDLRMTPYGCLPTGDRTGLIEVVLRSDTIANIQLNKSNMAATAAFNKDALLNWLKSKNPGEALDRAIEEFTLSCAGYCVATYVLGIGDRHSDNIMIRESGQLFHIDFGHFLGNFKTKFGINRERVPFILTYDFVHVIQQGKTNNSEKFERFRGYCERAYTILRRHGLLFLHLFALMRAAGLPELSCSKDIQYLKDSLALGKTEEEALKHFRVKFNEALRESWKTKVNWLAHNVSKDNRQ
Description: Rat-1 cells stably overexpressing a myristoylated form of the catalytic subunit of human phosphoinositide-3 kinase (PI3K) alpha, beta or delta were plated in 384-well plates at a density of 7500 (PI3K alpha), 6200 (PI3K beta), or 4000 (PI3K delta) cells in 30ul complete growth medium (Dulbecco's modified Eagle's medium (DMEM high glucose) supplemented with 10% (v/v) fetal bovine serum, 1% (v/v) MEM non essential amino acids, 10mM HEPES, 2mM L-glutamine, 10 µg/mL puromycin and 1% (v/v) Penicillin/Streptomycin) and were incubated at 37%C / 5%CO2 / 95% humidity for 24h. Compounds were diluted in 384-well compound plates to obtain 8-point serial dilutions for 40 test compounds in 90% DMSO, as well as 4 reference compounds plus 16 high controls and 16 low (inhibited) controls. Predilution plates were prepared by dispensing pipetting 250 nl of compound solutions into 384-well polypropylen plates using a Hummingwell nanoliter dispensor. Compounds were prediluted by the addition of 49.75 ul complete growth medium. 10ul of prediluted compound solution were transferred to the cell plate using a 384-well pipettor, resulting in a final DMSO concentration of 0.11%. […]
For detection of p-AKT(Ser473), the SureFire® p-Akt 1/2 (Ser473) Assay Kit (PerkinElmer, U.S.A) was used. […] The plate was read on an AlphaScreen® compatible plate reader, using standard AlphaScreen® settings.

Sequence of PI3K alpha (P42336 with tags, fused parts or gaps limits assumed): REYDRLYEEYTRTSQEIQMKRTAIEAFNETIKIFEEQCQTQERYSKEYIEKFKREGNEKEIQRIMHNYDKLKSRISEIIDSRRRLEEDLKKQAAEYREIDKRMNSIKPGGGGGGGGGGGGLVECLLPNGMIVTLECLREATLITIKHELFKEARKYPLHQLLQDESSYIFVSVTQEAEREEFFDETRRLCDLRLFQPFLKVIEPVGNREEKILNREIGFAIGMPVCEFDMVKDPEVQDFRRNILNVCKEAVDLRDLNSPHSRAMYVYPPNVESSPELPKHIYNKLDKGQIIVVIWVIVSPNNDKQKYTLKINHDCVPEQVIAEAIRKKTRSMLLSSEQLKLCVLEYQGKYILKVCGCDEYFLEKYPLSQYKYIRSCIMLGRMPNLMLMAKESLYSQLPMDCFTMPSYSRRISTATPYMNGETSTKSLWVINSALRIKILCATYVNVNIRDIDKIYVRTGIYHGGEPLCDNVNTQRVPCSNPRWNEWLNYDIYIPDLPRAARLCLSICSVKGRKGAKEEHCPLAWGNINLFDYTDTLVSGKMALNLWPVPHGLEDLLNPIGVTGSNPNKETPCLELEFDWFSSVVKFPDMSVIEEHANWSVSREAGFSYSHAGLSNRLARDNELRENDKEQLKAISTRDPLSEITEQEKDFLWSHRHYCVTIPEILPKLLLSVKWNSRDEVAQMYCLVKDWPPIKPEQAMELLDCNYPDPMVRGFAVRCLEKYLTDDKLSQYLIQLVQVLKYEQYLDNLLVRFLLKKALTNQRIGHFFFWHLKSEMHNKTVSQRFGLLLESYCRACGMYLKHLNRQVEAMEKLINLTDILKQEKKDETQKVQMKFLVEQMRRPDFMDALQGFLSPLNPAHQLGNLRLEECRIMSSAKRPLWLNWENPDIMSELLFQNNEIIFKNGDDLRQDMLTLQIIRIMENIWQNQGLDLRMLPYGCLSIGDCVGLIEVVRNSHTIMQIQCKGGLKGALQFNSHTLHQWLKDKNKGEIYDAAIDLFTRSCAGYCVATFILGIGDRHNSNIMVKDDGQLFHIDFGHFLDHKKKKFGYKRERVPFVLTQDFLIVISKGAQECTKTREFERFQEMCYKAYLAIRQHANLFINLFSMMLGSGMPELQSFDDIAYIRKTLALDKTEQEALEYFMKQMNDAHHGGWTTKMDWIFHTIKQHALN

COc1ncc(N2CCOc3cnc(O[C@H]4CCN(C(=O)C5CCS(=O)(=O)CC5)C4)cc32)cc1C [Example F1, (1,1-Dioxo-hexahydro-1lambda*6*-thiopyran-4-yl)-{(S)-3-[1-(6-methoxy-5-methyl-pyridin-3-yl)-2,3-dihydro-1H-pyrido[3,4-b][1,4]oxazin-7-yloxy]-pyrrolidin-1-yl}-methanone]
IC50 [1]: 109 nM
IC50 [2]: 3 nM
IC50 [3]: 11 nM
